ChEMBL document CHEMBL5523750, “Development of Novel N-Acylhydrazone Derivatives with High Anti-obesity Activity and Improved Safety by Exploring the Pharmaceutical Properties of Aldehyde Group” (J Med Chem, 2024)
Active and inactive are the calls of the source. The calls are words filed in the database; no cut-off is given here.

What was measured:
Mus musculus [1] = assay: Anti-obesity activity in high-fat and high-cholesterol diet induced DIO mouse model assessed as decrease in TG level at 5 mg/kg, ip administered everyday for 6 weeks (reference value: 1.2+/-0.1 mM); format: functional
[2] = MRT (0 to t) in Sprague-Dawley rat at 2 mg/kg, iv measured upto 24 hrs by LC-MS/MS analysis; format: ADME, organism-based; conditions: in vivo
3T3-L1 [3] = assay: Lipid lowering activity in confluent mouse 3T3-L1 preadipocytes assessed as reduction in triglyceride level at 0.1 to 0.5 uM measured after 0 to 3 days by oil red o staining based analysis; format: functional, cell-based; conditions: dose 0.1-0.5 µM, time 0-3 day
[4] = Tmax in Sprague-Dawley rat at 5 mg/kg, po measured upto 24 hrs by LC-MS/MS analysis; format: ADME, organism-based; conditions: in vivo
[5] = Half life in Sprague-Dawley rat at 5 mg/kg, po measured upto 24 hrs by LC-MS/MS analysis; format: ADME, organism-based; conditions: in vivo
[6] = AUC (0 to infinity) in Sprague-Dawley rat at 2 mg/kg, iv measured upto 24 hrs by LC-MS/MS analysis; format: ADME, organism-based; conditions: in vivo
3T3-L1 [7] = assay: Downregulation of ACC protein expression in mouse 3T3-L1 preadipocytes at 0.02 to 0.5 uM measured after 6 days by Western blot analysis; format: functional, cell-based; conditions: dose 0.02-0.5 µM, time 6.0 day
3T3-L1 [8] = assay: Downregulation of PPARgamma expression in mouse 3T3-L1 preadipocytes at 0.02 to 0.5 uM measured after 3 days by Western blot analysis; format: functional, cell-based; conditions: dose 0.02-0.5 µM, time 3.0 day
Mus musculus [9] = assay: Anti-obesity activity in high-fat and high-cholesterol diet induced DIO mouse model assessed as decrease in Glu level at 10 mg/kg, ip administered everyday for 6 weeks (reference value: 7.2+/-1.6 mM); format: functional
Mus musculus [10] = assay: Anti-obesity activity in high-fat and high-cholesterol diet induced male C57BL/6J mouse model assessed as improvement in glucose metabolism at 10 mg/kg, ip administered every other day for 4 weeks by glucose tolerance test; format: functional, organism-based
[11] = Hepatotoxicity in male C57BL/6J mouse assessed as effect on ALT level at 20 mg/kg, po administered daily and measured after 2 weeks; format: toxicity, organism-based; conditions: in vivo, 336 h
3T3-L1 [12] = assay: Induction of morphological changes in mouse 3T3-L1 preadipocytes assessed as alteration in cytoskeletal protein at 20 uM measured after 45 mins by phalloidin staining based HIS-SIM analysis; format: functional, cell-based
Mus musculus [13] = assay: Anti-obesity activity in high-fat diet induced male C57BL/6J mouse model assessed as mitigation of weight gain at 20 mg/kg, po administered daily for 2 weeks; format: functional, organism-based
Mus musculus [14] = assay: Anti-obesity activity in high-fat and high-cholesterol diet induced male C57BL/6J mouse model assessed as reduction in body weight at 5 mg/kg, ip administered every other day for 6 weeks relative to control; format: functional; set-up: scale not given: the % may be the effect or the level left
[15] = Volume of distribution at steady state (normalized by bioavailability) in Sprague-Dawley rat at 5 mg/kg, po measured upto 24 hrs by LC-MS/MS analysis; format: ADME, organism-based; conditions: in vivo, read-out: Vz/F
3T3-L1 [16] = assay: Activation of AMPK signaling pathway in mouse 3T3-L1 preadipocytes assessed as upregulation of AMPKalpha phosphorylation at 0.02 to 0.5 uM measured after 2 hrs by Western blot analysis; format: cell-based; conditions: filed as activator, dose 0.02-0.5 µM
Mus musculus [17] = assay: Anti-obesity activity in high-fat and high-cholesterol diet induced DIO mouse model assessed as decrease in urea level at 5 mg/kg, ip administered everyday for 6 weeks (reference value: 13.2+/-1.7 mM); format: functional
[18] = Selectivity ratio of CC50 for cytotoxicity against confluent mouse 3T3-L1 preadipocytes to EC50 for lipid lowering activity in confluent mouse 3T3-L1 preadipocytes; format: toxicity; conditions: confluent 3T3-L1 preadipocytes, read-out: Ratio CC50/EC50
[19] = Nephrotoxicity in male C57BL/6J mouse assessed as effect on cre level at 20 mg/kg, po administered daily and measured after 2 weeks; format: toxicity, organism-based; conditions: in vivo, 336 h
3T3-L1 [20] = assay: Lipid lowering activity in confluent mouse 3T3-L1 preadipocytes assessed as reduction in triglyceride level at 1.0 uM incubated for 9 days by oil red o staining based analysis relative to control; format: functional; set-up: scale not given: the % may be the effect or the level left; conditions: time 9 day
Mus musculus [21] = assay: Anti-obesity activity in high-fat and high-cholesterol diet induced DIO mouse model assessed as decrease in ALB level at 10 mg/kg, ip administered everyday for 6 weeks (reference value: 37.6+/-2.5 g/L); format: functional
3T3-L1 [22] = assay: Downregulation of C/EBPbeta protein expression in mouse 3T3-L1 preadipocytes at 0.02 to 0.5 uM measured after 3 days by Western blot analysis; format: functional, cell-based; conditions: dose 0.02-0.5 µM, time 3.0 day
[23] = Cmax in Sprague-Dawley rat at 5 mg/kg, po measured upto 24 hrs by LC-MS/MS analysis; format: ADME, organism-based; conditions: in vivo
Mus musculus [24] = assay: Anti-obesity activity in high-fat and high-cholesterol diet induced DIO mouse model assessed as decrease in TG level at 10 mg/kg, ip administered everyday for 6 weeks (reference value: 1.2+/-0.1 mM); format: functional
[25] = MRT (0 to t) in Sprague-Dawley rat at 5 mg/kg, po measured upto 24 hrs by LC-MS/MS analysis; format: ADME, organism-based; conditions: in vivo
Mus musculus [26] = assay: Anti-obesity activity in high-fat and high-cholesterol diet induced DIO mouse model assessed as decrease in TCHOL level at 10 mg/kg, ip administered everyday for 6 weeks (reference value: 4.1+/-0.7 mM); format: functional
[27] = Oral bioavailability (0 to infinity) in Sprague-Dawley rat at 5 mg/kg measured upto 24 hrs by LC-MS/MS analysis; format: ADME, organism-based; conditions: in vivo
Mus musculus [28] = assay: Anti-obesity activity in high-fat and high-cholesterol diet induced DIO mouse model assessed as decrease in HDL-C level at 10 mg/kg, ip administered everyday for 6 weeks (reference value: 2.3+/-0.2 mM); format: functional
Mus musculus [29] = assay: Anti-obesity activity in high-fat and high-cholesterol diet induced DIO mouse model assessed as decrease in ALP level at 10 mg/kg, ip administered everyday for 6 weeks (reference value: 72.7+/-19.7 U/L); format: functional
Mus musculus [30] = assay: Anti-obesity activity in high-fat and high-cholesterol diet induced DIO mouse model assessed as decrease in HDL-C level at 5 mg/kg, ip administered everyday for 6 weeks (reference value: 2.3+/-0.2 mM); format: functional
[31] = AUC (0 to infinity) in Sprague-Dawley rat at 5 mg/kg, po measured upto 24 hrs by LC-MS/MS analysis; format: ADME, organism-based; conditions: in vivo
Mus musculus [32] = assay: Anti-obesity activity in high-fat and high-cholesterol diet induced DIO mouse model assessed as decrease in ALB level at 5 mg/kg, ip administered everyday for 6 weeks (reference value: 37.6+/-2.5 g/L); format: functional
3T3-L1 [33] = assay: Downregulation of FAS protein expression in mouse 3T3-L1 preadipocytes at 0.02 to 0.5 uM measured after 6 days by Western blot analysis; format: functional, cell-based; conditions: dose 0.02-0.5 µM, time 6.0 day
[34] = AUC (0 to t) in Sprague-Dawley rat at 5 mg/kg, po measured upto 24 hrs by LC-MS/MS analysis; format: ADME, organism-based; conditions: in vivo

MRT last at 24 h [2]: 8.9 h
Tmax [4]: 10 h
half-life [5]: 30 h
AUC(0-inf) [6]: 266 ng·h/mL
Vd/F [15]: 620 L/kg
Cmax [23]: 8.2 ng/mL
MRT last at 24 h [25]: 12.7 h
bioavailability [27]: 45.7%
AUC(0-inf) [31]: 452 ng·h/mL
AUC(0-t) at 24 h [34]: 135 ng·h/mL
SMILES: CC(=O)N/N=C/c1c(-c2nc(NCCN3CCCC3)c3ccccc3n2)[nH]c2ccccc12
Activity (Mus musculus [1]): 1 mM
Activity (3T3-L1 [3]): Active
Activity (3T3-L1 [7]): Active
Activity (3T3-L1 [8]): Active
Activity (Mus musculus [9]): 4.3 mM
Activity (Mus musculus [10]): Active
Activity [11]: Non-Toxic
Activity (3T3-L1 [12]): inactive
Activity (Mus musculus [13]): Active
Activity (Mus musculus [14]): 6.2%
Activity (3T3-L1 [16]): Active
Activity (Mus musculus [17]): 12.2 mM
selectivity ratio [18]: 572
Activity [19]: Non-Toxic
Activity (3T3-L1 [20]): 99.5%
Activity (Mus musculus [21]): 34.8 g/L
Activity (3T3-L1 [22]): Active
Activity (Mus musculus [24]): 1.1 mM
Activity (Mus musculus [26]): 3.8 mM
Activity (Mus musculus [28]): 2.9 mM
Activity (Mus musculus [29]): 50.7 U/L
Activity (Mus musculus [30]): 3.1 mM
Activity (Mus musculus [32]): 37.4 g/L
Activity (3T3-L1 [33]): Active
